System: SEM cells
Test: cell viability relative to DMSO control; higher = less cytotoxic
Settings: 48 h
In short: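 NOMO1, SEM and P12-Ichikawa leukemia cells spent at least four passages adapting to each medium before use. They were seeded at 500 cells/well (NOMO1, SEM) or 1000 cells/well (P12-Ichikawa) in 5 μl in 1536-well plates and pin-dosed with library compounds in DMSO at 11 threefold steps from 47 μM down to 0.79 nM. After 48 h at 37°C, CellTiter-Glo One luminescence was read. Viability is reported as a percentage of the DMSO wells on each plate, with cell-free wells as background.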

[1] = HPLM + 10% dialyzed FBS, 0.000781 µM
[2] = HPLM + 10% dialyzed FBS, 0.00234 µM
[3] = HPLM + 10% dialyzed FBS, 0.00702 µM
[4] = HPLM + 10% dialyzed FBS, 0.0211 µM
[5] = HPLM + 10% dialyzed FBS, 0.0632 µM
[6] = HPLM + 10% dialyzed FBS, 0.19 µM
[7] = HPLM + 10% dialyzed FBS, 0.569 µM
[8] = HPLM + 10% dialyzed FBS, 1.71 µM
[9] = HPLM + 10% dialyzed FBS, 5.12 µM
[10] = HPLM + 10% dialyzed FBS, 15.4 µM
[11] = HPLM + 10% dialyzed FBS, 46.1 µM
[12] = RPMI 5 mM glucose + 10% FBS, 0.000781 µM
[13] = RPMI 5 mM glucose + 10% FBS, 0.00234 µM
[14] = RPMI 5 mM glucose + 10% FBS, 0.00702 µM
[15] = RPMI 5 mM glucose + 10% FBS, 0.0211 µM
[16] = RPMI 5 mM glucose + 10% FBS, 0.0632 µM
[17] = RPMI 5 mM glucose + 10% FBS, 0.19 µM
[18] = RPMI 5 mM glucose + 10% FBS, 0.569 µM
[19] = RPMI 5 mM glucose + 10% FBS, 1.71 µM
[20] = RPMI 5 mM glucose + 10% FBS, 5.12 µM
[21] = RPMI 5 mM glucose + 10% FBS, 15.4 µM
[22] = RPMI 5 mM glucose + 10% FBS, 46.1 µM
[23] = RPMI 5 mM glucose + 10% dialyzed FBS, 0.000781 µM
[24] = RPMI 5 mM glucose + 10% dialyzed FBS, 0.00234 µM
[25] = RPMI 5 mM glucose + 10% dialyzed FBS, 0.00702 µM
[26] = RPMI 5 mM glucose + 10% dialyzed FBS, 0.0211 µM
[27] = RPMI 5 mM glucose + 10% dialyzed FBS, 0.0632 µM
[28] = RPMI 5 mM glucose + 10% dialyzed FBS, 0.19 µM
[29] = RPMI 5 mM glucose + 10% dialyzed FBS, 0.569 µM
[30] = RPMI 5 mM glucose + 10% dialyzed FBS, 1.71 µM
[31] = RPMI 5 mM glucose + 10% dialyzed FBS, 5.12 µM
[32] = RPMI 5 mM glucose + 10% dialyzed FBS, 15.4 µM
[33] = RPMI 5 mM glucose + 10% dialyzed FBS, 46.1 µM

| SMILES | cell viability [1] | cell viability [2] | cell viability [3] | cell viability [4] | cell viability [5] | cell viability [6] | cell viability [7] | cell viability [8] | cell viability [9] | cell viability [10] | cell viability [11] | cell viability [12] | cell viability [13] | cell viability [14] | cell viability [15] | cell viability [16] | cell viability [17] | cell viability [18] | cell viability [19] | cell viability [20] | cell viability [21] | cell viability [22] | cell viability [23] | cell viability [24] | cell viability [25] | cell viability [26] | cell viability [27] | cell viability [28] | cell viability [29] | cell viability [30] | cell viability [31] | cell viability [32] | cell viability [33] |
| --- | --- | --- | --- | --- | --- | --- | --- | --- | --- | --- | --- | --- | --- | --- | --- | --- | --- | --- | --- | --- | --- | --- | --- | --- | --- | --- | --- | --- | --- | --- | --- | --- | --- |
| C[C@]12CC[C@H]3[C@@H](CC[C@@]45O[C@@H]4C(O)=C(C#N)C[C@]35C)[C@@H]1CC[C@@H]2O | 89.7% | 79.7% | 102% | 97.3% | 109% | 106% | 108% | 111% | 89.6% | 86.3% | 12.4% | 90.9% | 84.7% | 95.5% | 86% | 90.4% | 81.4% | 75.4% | 84.6% | 56.9% | 58.8% | 4.92% | 116% | 107% | 121% | 105% | 114% | 102% | 110% | 110% | 87.2% | 52.8% | 5.45% |
| CC1=CC/2=C(C=C1C)N(C[C@@H](O)[C@@H](O)[C@@H](O)CO)C/3=N/C(=O)NC(=O)C3=N2 | 117% | 122% | 126% | 118% | 113% | 117% | 129% | 116% | 115% | 127% | 105% | 85.8% | 98.8% | 86.8% | 98.6% | 93.3% | 97.8% | 92.3% | 77.9% | 77.5% | 90.3% | 85.5% | 110% | 127% | 107% | 106% | 110% | 107% | 118% | 113% | 117% | 129% | 102% |
| Clc1ccc(CCC(Cn2ccnc2)Sc2c(Cl)cccc2Cl)cc1 (centres undefined) | 73% | 71.5% | 77.3% | 83.5% | 72.8% | 95% | 76.3% | 77.3% | 80.1% | 76.8% | 61.2% | 78.7% | 88% | 97.7% | 89.7% | 85.7% | 83.6% | 101% | 100% | 92.6% | 86.1% | 52.5% | 78.8% | 88.7% | 100% | 92.5% | 82% | 103% | 89.4% | 77.4% | 76.9% | 85.3% | 57.3% |
| COC(=O)CCC1=C(C)C2=CC3=NC(=CC4=C(C)C(=C([NH]4)C=C\5N=C(C=C1[NH]2)\C(=C5C)CCC(O)=O)C=C)\C6=C\C=C(/[C@@H](C(=O)OC)[C@@]36C)C(=O)OC | 88.5% | 83.3% | 89.7% | 85.4% | 94.2% | 94.4% | 98% | 95.7% | 91.7% | 82.7% | 77.4% | 89.4% | 92% | 91.8% | 94.9% | 95.2% | 98.1% | 87.7% | 98.9% | 95.4% | 89.7% | 75.4% | 86.6% | 90.7% | 101% | 108% | 105% | 122% | 104% | 108% | 105% | 91.3% | 80.4% |
| CCOC(=O)c1c(CSc2ccccc2)n(C)c2cc(Br)c(O)c(CN(C)C)c12 | 89.7% | 94.8% | 96.4% | 109% | 96.2% | 102% | 97.3% | 103% | 82.5% | 108% | 88.6% | 107% | 114% | 109% | 103% | 104% | 128% | 125% | 129% | 103% | 101% | 63.7% | 94.9% | 114% | 101% | 104% | 111% | 97.5% | 94.7% | 109% | 113% | 109% | 70.5% |
| O=C1\C=C(OC2=C(C=CC=C12)C3=CC=CC4=C3SC5=C4C=CC=C5)\N6CCOCC6 | 110% | 103% | 121% | 120% | 124% | 115% | 107% | 104% | 96.9% | 89.9% | 91.2% | 133% | 104% | 105% | 138% | 109% | 112% | 112% | 114% | 73% | 60.2% | 62.7% | 129% | 109% | 116% | 123% | 116% | 123% | 122% | 113% | 78.5% | 75.7% | 76% |
| O=C(CCCN1CCC(O)(c2ccc(Cl)cc2)CC1)c1ccc(F)cc1 | 86.5% | 93.9% | 75.6% | 106% | 113% | 94.8% | 25.8% | 43.8% | 90.2% | 102% | 98.3% | 100% | 109% | 82.6% | 101% | 113% | 117% | 20.9% | 47.2% | 117% | 110% | 89.6% | 101% | 106% | 95.5% | 110% | 123% | 120% | 30.6% | 43% | 122% | 122% | 101% |
| Cc1nnc(C(C)C)n1[C@@H]1C[C@H]2CC[C@@H](C1)N2CC[C@H](NC(=O)C1CCC(F)(F)CC1)c1ccccc1 | 83.1% | 90.9% | 95.8% | 95% | 77.2% | 98.3% | 105% | 98% | 102% | 64.9% | 57.1% | 78.9% | 74.3% | 82.2% | 93.4% | 86.1% | 103% | 84.9% | 85.6% | 86.1% | 43.6% | 38.6% | 84.6% | 90.5% | 101% | 90.1% | 88.9% | 103% | 87.8% | 103% | 105% | 51.8% | 40.2% |
| O=C1c2ccccc2-c2n[nH]c3cccc1c23 | 82.9% | 101% | 121% | 97.9% | 99% | 104% | 5.3% | 102% | 112% | 76.8% | 37.4% | 82% | 107% | 97.3% | 103% | 106% | 107% | 6.25% | 98.2% | 90.5% | 63.6% | 21.2% | 86.6% | 93.9% | 99.1% | 105% | 91% | 116% | 5.93% | 92.9% | 103% | 67.4% | 26.7% |
| O=C(O)c1cccc(-c2noc(-c3ccccc3F)n2)c1 | 106% | 109% | 92.3% | 100% | 101% | 110% | 102% | 104% | 104% | 92.3% | 88.1% | 88.1% | 94.7% | 105% | 94.1% | 99.6% | 107% | 101% | 99.3% | 98.3% | 84.3% | 73.5% | 87.1% | 106% | 106% | 108% | 115% | 94.2% | 122% | 112% | 108% | 95.7% | 85.7% |
| CC(=O)N(O)CCCCCNC(=O)CCC(=O)N(O)CCCCCNC(=O)CCC(=O)N(O)CCCCCN.C[S+](=O)([O-])O | 74.3% | 86.8% | 77.7% | 26.2% | 25.3% | 18.8% | 22.5% | 18.2% | 23.9% | 23.2% | 23.2% | 96.8% | 54.4% | 30.4% | 18.5% | 20.6% | 20.9% | 20.6% | 14.4% | 18.5% | 15.9% | 16.3% | 81% | 82.9% | 94.4% | 30.2% | 25.4% | 19.3% | 18.7% | 20.2% | 19.3% | 23.6% | 23.7% |
| Nc1ncnc2nc(-c3ccc(N4CCOCC4)nc3)cc(-c3cccc(Br)c3)c12 | 109% | 107% | 115% | 118% | 114% | 122% | 117% | 115% | 109% | 110% | 96.5% | 93.2% | 124% | 77.9% | 111% | 114% | 110% | 104% | 105% | 114% | 106% | 83% | 125% | 124% | 102% | 133% | 125% | 127% | 132% | 126% | 133% | 123% | 93% |
| Cc1nc2ccc(CN(C)c3ccc(C(=O)N[C@@H](CCC(=O)O)C(=O)O)s3)cc2c(=O)[nH]1 | 90.3% | 93.1% | 101% | 103% | 64.1% | 45% | 41.4% | 42.7% | 35.4% | 39.3% | 38.3% | 96.5% | 115% | 103% | 104% | 118% | 99% | 93% | 85.6% | 83.3% | 82.1% | 82.1% | 98.7% | 113% | 113% | 118% | 106% | 45.9% | 33.2% | 35.3% | 29.6% | 32.4% | 30.5% |
| NC(=O)c1nnn(Cc2cc(Cl)c(C(=O)c3ccc(Cl)cc3)c(Cl)c2)c1N | 112% | 116% | 125% | 107% | 127% | 128% | 135% | 116% | 111% | 124% | 89.4% | 115% | 133% | 117% | 114% | 112% | 127% | 120% | 110% | 107% | 106% | 67.6% | 88.6% | 113% | 89.8% | 90.5% | 116% | 95.1% | 99.7% | 101% | 107% | 97.6% | 48.6% |
| COc1ccc(/C=C/C(=O)Nc2ccccc2C(=O)O)cc1OC |  |  |  |  |  |  |  |  |  |  |  | 109% | 140% | 118% | 130% | 99.4% | 97.5% | 110% | 116% | 125% | 106% | 104% | 94.7% | 115% | 110% | 108% | 35.1% | 115% | 96.7% | 110% | 116% | 129% | 96.7% |
